A short description of experiment [1]: Antiproliferative activity against human WM3629 cells by MTT/CellTiter 96 assay. In kind it is functional.
A short description of experiment [2]: Antiproliferative activity against human A375P cells by MTT assay. In kind it is functional. (In general: Tetrazolium dyes change colour on reduction, which living cells bring about.)
For experiment [3], the system named is Serine/threonine-protein kinase B-raf (Homo sapiens), P15056 [V600E]. Conditions: 10 uM.
Description: Inhibition of human BRAF V599E mutant at 10 uM
In experiment [4] the target is Tyrosine-protein kinase Lck (Homo sapiens) (UniProt P06239). The experiment is described as follows: Inhibition of human LCK at 10 uM.
Experiment [5] addresses Proto-oncogene tyrosine-protein kinase Src (Homo sapiens) (UniProt P12931). The experiment is described as follows: Inhibition of human cSRC at 10 uM.
Experiment [6] concerns the target Tyrosine-protein kinase Lyn (Homo sapiens) (UniProt P07948). The experiment is described as follows: Inhibition of human LYN at 10 uM.
For experiment [7], the target named is Proto-oncogene tyrosine-protein kinase ROS (Homo sapiens) (UniProt P08922). Kind of experiment: Inhibition of human ROS1 at 10 uM.
Experiment [8] deals with Cyclin-dependent kinase 2/cyclin E1 (Homo sapiens) (UniProt P24864+P24941). The experiment is described as follows: Inhibition of human CDK2/cyclin E at 10 uM. In kind it is protein-complex assay.
The target of experiment [9] is Tyrosine-protein kinase SYK (Homo sapiens) (UniProt P43405). The experiment is described as follows: Inhibition of human SYK at 10 uM.
Experiment [10] deals with RAC-alpha serine/threonine-protein kinase (Homo sapiens) (UniProt P31749). The experiment is described as follows: Inhibition of human AKT1 at 10 uM.
Experiment [11] has as its target Fibroblast growth factor receptor 2 (Homo sapiens) (UniProt P21802). Kind of experiment: Inhibition of human FGFR2 at 10 uM.
The target in experiment [12] is Macrophage-stimulating protein receptor (Homo sapiens) (UniProt Q04912). Kind of experiment: Inhibition of human RON at 10 uM.
Experiment [13] deals with Fibroblast growth factor receptor 3 (Homo sapiens) (UniProt P22607). The experiment is described as follows: Inhibition of human FGFR3 at 10 uM.
Experiment [14] deals with Aurora kinase A (Homo sapiens) (UniProt O14965). Kind of experiment: Inhibition of human Aurora A at 10 uM.
Experiment [15] has as its target T1, RAF proto-oncogene serine/threonine-protein kinase (Homo sapiens, UniProt P04049). Kind of experiment: Inhibition of CRAF (unknown origin).
For experiment [16], the target named is Mitogen-activated protein kinase 14 (Homo sapiens) (UniProt Q16539). The experiment is described as follows: Inhibition of human MAPK14 at 10 uM.
For experiment [17], the target named is Serine/threonine-protein kinase mTOR (Homo sapiens) (UniProt P42345). The experiment is described as follows: Inhibition of human mTOR at 10 uM.
For experiment [18], the target named is Cyclin-dependent kinase 1/cyclin B1 (Homo sapiens) (UniProt P06493+P14635). Kind of experiment: Inhibition of human CDK1/cyclin B at 10 uM. The experiment is classed as protein-complex assay.
The target of experiment [19] is Tyrosine-protein kinase JAK3 (Homo sapiens) (UniProt P52333). The experiment is described as follows: Inhibition of human JAK3 at 10 uM.
The target of experiment [20] is T2, Serine/threonine-protein kinase B-raf (Homo sapiens, UniProt P15056). The experiment is described as follows: Inhibition of BRAF (unknown origin).
The target in experiment [21] is ALK tyrosine kinase receptor (Homo sapiens) (UniProt Q9UM73). The experiment is described as follows: Inhibition of human ALK at 10 uM.
The target in experiment [22] is Tyrosine-protein kinase ABL1 (Homo sapiens) (UniProt P00519). Kind of experiment: Inhibition of human ABL1 at 10 uM.
For a further experiment, the species on record is Homo sapiens. Kind of experiment: Inhibition of human PKA at 10 uM.
For experiment [23], the target named is Insulin-like growth factor 1 receptor (Homo sapiens) (UniProt P08069). Kind of experiment: Inhibition of human IGF1R at 10 uM.
The target of experiment [24] is Mitogen-activated protein kinase 10 (Homo sapiens) (UniProt P53779). The experiment is described as follows: Inhibition of human JNK3 at 10 uM.
In experiment [25] the target is Glycogen synthase kinase-3 beta (Homo sapiens) (UniProt P49841). Kind of experiment: Inhibition of human GSK3beta at 10 uM.
The target of experiment [26] is Mitogen-activated protein kinase 3 (Homo sapiens) (UniProt P27361). Kind of experiment: Inhibition of human ERK1 at 10 uM.
In experiment [27] the target is Vascular endothelial growth factor receptor 2 (Homo sapiens) (UniProt P35968). Kind of experiment: Inhibition of human KDR at 10 uM.
In experiment [28] the target is T2, Serine/threonine-protein kinase B-raf. As to conditions: 10 uM.
Description: Inhibition of human BRAF at 10 uM
Experiment [29] concerns the target Dual specificity mitogen-activated protein kinase kinase 1 (Homo sapiens) (UniProt Q02750). The experiment is described as follows: Inhibition of human MEK1 at 10 uM.
Experiment [30] has as its target Hepatocyte growth factor receptor (Homo sapiens) (UniProt P08581). The experiment is described as follows: Inhibition of human cMET at 10 uM.
Experiment [31] concerns the target T1, RAF proto-oncogene serine/threonine-protein kinase. Conditions: 10 uM.
Description: Inhibition of human RAF1 at 10 uM
For experiment [32], the target named is Serine/threonine-protein kinase PLK1 (Homo sapiens) (UniProt P53350). The experiment is described as follows: Inhibition of human PLK1 at 10 uM.
Experiment [33] has as its target Epidermal growth factor receptor (Homo sapiens) (UniProt P00533). Kind of experiment: Inhibition of human EGFR at 10 uM.
For experiment [34], the target named is Mast/stem cell growth factor receptor Kit (Homo sapiens) (UniProt P10721). The experiment is described as follows: Inhibition of human cKIT at 10 uM.
Experiment [35] addresses Focal adhesion kinase 1 (Homo sapiens) (UniProt Q05397). The experiment is described as follows: Inhibition of human FAK at 10 uM.
Experiment [36] deals with Receptor-type tyrosine-protein kinase FLT3 (Homo sapiens) (UniProt P36888). Kind of experiment: Inhibition of human FLT3 at 10 uM.
Experiment [37] concerns the target Macrophage colony-stimulating factor 1 receptor (Homo sapiens) (UniProt P07333). The experiment is described as follows: Inhibition of human FMS at 10 uM.
For experiment [38], the target named is Serine/threonine-protein kinase B-raf (Homo sapiens, UniProt P15056, V600E). Kind of experiment: Inhibition of BRAF V599E mutant (unknown origin).
A short description of experiment [39]: Selectivity ratio of GI50 for human A375P cells to GI50 for human WM3629 cells. The experiment is classed as functional.

Each structure is given as a SMILES string.

The GI50 is the concentration at which growth is held to half of that of the control. A lower GI50 goes with more potent growth inhibition. Broadly, the inhibition is the relative decrease from the control value, in per cent. A lower inhibition goes with a weak effect. For orientation: IC50 means the point on the concentration scale where inhibition reaches its midpoint. Read a low IC50 as greater potency.

T1 sequence (P04049 whole entry): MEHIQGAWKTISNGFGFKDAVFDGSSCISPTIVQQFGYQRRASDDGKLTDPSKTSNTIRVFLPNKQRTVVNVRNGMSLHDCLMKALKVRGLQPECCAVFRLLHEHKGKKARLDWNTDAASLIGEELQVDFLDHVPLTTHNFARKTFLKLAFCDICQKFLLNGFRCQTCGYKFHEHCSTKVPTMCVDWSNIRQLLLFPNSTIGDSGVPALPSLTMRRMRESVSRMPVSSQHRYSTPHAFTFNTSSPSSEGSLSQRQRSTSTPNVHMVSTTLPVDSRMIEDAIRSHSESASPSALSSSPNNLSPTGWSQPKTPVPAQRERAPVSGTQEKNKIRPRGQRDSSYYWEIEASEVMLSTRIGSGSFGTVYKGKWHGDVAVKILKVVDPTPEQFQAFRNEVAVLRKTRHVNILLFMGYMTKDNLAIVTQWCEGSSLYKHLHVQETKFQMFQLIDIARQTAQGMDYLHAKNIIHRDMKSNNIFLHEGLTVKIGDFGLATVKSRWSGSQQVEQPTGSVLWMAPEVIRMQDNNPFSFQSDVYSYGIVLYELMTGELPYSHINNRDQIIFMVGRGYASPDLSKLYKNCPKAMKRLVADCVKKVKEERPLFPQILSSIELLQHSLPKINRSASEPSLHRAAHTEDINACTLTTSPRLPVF
T2 sequence (P15056 whole entry): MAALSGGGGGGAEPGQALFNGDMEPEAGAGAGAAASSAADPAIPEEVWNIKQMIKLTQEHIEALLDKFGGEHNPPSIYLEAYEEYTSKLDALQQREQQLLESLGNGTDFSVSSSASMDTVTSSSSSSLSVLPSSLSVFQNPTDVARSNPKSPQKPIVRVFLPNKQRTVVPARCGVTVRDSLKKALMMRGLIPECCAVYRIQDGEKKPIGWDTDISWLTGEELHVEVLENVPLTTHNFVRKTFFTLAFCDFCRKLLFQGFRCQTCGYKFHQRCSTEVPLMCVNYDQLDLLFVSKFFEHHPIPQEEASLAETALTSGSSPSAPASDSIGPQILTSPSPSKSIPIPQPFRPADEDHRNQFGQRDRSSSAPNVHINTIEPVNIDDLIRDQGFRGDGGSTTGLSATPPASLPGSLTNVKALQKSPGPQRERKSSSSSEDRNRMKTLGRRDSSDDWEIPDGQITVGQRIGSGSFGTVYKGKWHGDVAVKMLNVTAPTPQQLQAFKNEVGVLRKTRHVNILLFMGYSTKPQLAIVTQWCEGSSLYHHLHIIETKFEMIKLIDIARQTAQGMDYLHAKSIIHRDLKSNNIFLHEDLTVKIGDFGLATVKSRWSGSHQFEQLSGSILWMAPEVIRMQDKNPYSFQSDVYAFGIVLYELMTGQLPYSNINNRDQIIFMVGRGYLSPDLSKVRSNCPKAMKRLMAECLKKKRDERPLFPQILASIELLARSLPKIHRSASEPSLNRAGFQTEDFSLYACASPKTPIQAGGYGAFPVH
Chain of Vascular endothelial growth factor receptor 2 (Homo sapiens) (P35968 whole entry): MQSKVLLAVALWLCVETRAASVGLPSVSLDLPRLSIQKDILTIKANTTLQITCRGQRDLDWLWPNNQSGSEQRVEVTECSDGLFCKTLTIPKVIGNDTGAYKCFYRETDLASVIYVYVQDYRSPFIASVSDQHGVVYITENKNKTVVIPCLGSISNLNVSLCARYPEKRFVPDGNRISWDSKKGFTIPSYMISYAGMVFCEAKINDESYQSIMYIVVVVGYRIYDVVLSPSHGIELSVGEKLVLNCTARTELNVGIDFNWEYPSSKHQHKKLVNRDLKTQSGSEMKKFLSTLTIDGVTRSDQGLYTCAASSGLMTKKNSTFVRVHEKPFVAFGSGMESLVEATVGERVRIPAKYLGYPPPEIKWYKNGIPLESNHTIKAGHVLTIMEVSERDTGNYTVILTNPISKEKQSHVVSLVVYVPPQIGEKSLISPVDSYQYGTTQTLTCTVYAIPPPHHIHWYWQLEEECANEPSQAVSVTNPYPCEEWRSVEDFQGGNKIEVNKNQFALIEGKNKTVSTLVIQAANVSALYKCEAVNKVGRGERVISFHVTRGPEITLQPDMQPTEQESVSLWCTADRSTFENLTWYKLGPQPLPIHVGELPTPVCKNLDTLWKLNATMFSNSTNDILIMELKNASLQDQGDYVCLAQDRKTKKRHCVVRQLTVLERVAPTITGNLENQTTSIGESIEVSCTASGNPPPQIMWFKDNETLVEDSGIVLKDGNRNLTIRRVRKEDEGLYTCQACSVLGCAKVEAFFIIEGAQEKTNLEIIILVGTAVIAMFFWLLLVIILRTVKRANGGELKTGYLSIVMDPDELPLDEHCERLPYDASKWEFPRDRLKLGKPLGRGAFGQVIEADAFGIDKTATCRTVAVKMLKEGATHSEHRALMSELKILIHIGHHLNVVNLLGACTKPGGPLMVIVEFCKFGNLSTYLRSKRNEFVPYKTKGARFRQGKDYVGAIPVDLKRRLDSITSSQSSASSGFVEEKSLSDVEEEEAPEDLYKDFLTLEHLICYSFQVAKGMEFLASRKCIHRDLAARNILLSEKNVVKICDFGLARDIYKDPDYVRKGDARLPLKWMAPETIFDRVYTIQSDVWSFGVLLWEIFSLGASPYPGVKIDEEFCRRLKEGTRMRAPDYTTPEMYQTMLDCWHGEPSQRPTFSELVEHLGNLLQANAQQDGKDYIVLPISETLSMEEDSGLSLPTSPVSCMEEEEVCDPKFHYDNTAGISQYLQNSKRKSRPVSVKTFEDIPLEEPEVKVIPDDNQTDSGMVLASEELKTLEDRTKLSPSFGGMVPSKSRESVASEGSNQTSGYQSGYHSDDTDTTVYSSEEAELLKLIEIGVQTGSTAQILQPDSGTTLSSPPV
Chain of Insulin-like growth factor 1 receptor (Homo sapiens) (P08069 31-736 limits assumed): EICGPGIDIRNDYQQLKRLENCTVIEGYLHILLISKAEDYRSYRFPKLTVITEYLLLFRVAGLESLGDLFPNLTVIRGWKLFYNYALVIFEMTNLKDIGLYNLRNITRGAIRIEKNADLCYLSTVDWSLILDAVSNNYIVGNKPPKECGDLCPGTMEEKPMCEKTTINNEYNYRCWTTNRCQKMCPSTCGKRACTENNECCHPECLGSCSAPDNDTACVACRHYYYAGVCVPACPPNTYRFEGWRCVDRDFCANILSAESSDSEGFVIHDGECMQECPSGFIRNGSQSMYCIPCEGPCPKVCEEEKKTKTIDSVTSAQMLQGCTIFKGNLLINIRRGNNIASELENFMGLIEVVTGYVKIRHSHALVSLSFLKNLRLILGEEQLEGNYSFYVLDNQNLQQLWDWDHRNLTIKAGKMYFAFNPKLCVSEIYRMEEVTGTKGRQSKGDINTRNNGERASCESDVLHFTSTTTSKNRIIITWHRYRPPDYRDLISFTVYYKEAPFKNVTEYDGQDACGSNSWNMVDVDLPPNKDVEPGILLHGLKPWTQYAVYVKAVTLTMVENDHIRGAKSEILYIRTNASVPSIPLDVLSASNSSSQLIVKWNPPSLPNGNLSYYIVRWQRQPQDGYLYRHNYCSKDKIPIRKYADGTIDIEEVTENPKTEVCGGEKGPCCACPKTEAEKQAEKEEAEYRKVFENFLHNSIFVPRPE
Chain of Insulin-like growth factor 1 receptor (Homo sapiens) (P08069 741-1367 limits assumed): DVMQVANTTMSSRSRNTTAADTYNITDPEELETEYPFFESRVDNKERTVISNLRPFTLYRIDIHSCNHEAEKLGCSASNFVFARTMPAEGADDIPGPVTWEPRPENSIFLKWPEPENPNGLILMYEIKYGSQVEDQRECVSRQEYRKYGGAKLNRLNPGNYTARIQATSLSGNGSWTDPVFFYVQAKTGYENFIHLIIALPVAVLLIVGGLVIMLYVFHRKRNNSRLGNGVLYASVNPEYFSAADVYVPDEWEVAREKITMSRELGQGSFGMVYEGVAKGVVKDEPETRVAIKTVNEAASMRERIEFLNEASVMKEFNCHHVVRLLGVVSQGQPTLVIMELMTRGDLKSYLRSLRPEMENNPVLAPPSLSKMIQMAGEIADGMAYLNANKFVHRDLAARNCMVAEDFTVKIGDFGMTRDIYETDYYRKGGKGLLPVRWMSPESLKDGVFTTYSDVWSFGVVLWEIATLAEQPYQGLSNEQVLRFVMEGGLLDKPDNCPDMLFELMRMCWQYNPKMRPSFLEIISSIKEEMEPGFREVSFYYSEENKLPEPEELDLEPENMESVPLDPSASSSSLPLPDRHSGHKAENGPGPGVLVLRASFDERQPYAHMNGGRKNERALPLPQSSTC
Chain of Receptor-type tyrosine-protein kinase FLT3 (Homo sapiens) (P36888 whole entry): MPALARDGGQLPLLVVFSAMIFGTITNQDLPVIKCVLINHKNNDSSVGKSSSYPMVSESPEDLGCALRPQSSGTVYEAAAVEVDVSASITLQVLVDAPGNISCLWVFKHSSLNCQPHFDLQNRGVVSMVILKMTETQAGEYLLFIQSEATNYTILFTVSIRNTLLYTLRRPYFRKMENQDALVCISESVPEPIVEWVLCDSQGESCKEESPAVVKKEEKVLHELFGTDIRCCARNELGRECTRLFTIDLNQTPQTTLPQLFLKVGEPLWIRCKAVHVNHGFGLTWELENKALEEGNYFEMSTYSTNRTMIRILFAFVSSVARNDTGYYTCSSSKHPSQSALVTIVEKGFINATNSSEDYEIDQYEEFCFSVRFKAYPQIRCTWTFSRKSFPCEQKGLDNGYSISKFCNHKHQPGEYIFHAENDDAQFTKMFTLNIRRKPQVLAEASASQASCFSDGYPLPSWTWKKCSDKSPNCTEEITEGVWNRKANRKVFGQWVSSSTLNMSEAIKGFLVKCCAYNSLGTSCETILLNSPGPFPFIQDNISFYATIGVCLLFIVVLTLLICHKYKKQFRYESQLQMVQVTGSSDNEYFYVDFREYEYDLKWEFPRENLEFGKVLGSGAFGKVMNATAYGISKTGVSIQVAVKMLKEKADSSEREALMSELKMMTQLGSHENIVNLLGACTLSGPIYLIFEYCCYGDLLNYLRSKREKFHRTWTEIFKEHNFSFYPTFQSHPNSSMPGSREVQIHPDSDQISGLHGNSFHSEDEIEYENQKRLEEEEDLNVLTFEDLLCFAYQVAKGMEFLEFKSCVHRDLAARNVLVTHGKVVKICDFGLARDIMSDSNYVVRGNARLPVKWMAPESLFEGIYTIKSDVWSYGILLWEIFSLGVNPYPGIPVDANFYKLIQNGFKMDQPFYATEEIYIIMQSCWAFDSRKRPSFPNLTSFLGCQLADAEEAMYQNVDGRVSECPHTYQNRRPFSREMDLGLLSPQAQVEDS

On to `COc1cccc(CNc2ccc3c(C(=O)N[C@@H](C)C(N)=O)[nH]nc3c2)c1`, for which the values for the GI50 in [1] and in experiment [2] were 7.19 µM and 17.8 µM, respectively.

Consider `C[C@H](NC(=O)c1[nH]nc2cc(NCc3cccc(NC(=O)c4cnccn4)c3)ccc12)C(N)=O`, for which the GI50 in experiment [1] amounted to 7.86 µM; in experiment [2] it was 19.2 µM.

Turning to `C[C@H](NC(=O)c1[nH]nc2cc(NC(=O)c3cc(N4CCOCC4)cc(C(F)(F)F)c3)ccc12)C(N)=O`, the GI50 in experiment [1] and in experiment [2] was > 30 µM in each case.

For the molecule `COc1ccc(-n2ncc(C(=O)Nc3ccc4c(C(=O)N[C@@H](C)C(N)=O)[nH]nc4c3)c2C(F)(F)F)cc1`, the values for the GI50 in experiment [1] and in experiment [2] were 3.28 µM and 24.6 µM, respectively.

In the case of `CNC(=O)c1cc(Oc2ccc(NC(=O)Nc3ccc(Cl)c(C(F)(F)F)c3)cc2)ccn1` [SORAFENIB], the results for the GI50 in [1] and in experiment [2] were 0.78 µM and 2.58 µM, respectively.

As to `C[C@H](NC(=O)c1[nH]nc2cc(NC(=O)Nc3ccc(C(F)(F)F)c(N4CCOCC4)c3)ccc12)C(N)=O`, the GI50 came out at 3.51 µM in [1] and 10.1 µM in experiment [2].

Consider `C[C@H](NC(=O)c1[nH]nc2cc(NCc3ccc(F)cc3)ccc12)C(N)=O`, for which the GI50 in experiment [1] came to 9.05 µM; in experiment [2], 10.1 µM.

As to `C[C@H](NC(=O)c1[nH]nc2cc(NC(=O)c3cccc(C(C)(C)C#N)c3)ccc12)C(N)=O`, the GI50 in experiment [1] and in experiment [2] was > 30 µM throughout.

`C[C@H](NC(=O)c1[nH]nc2cc(NCc3cccc(NC(=O)c4cccc(C(C)(C)C#N)c4)c3)ccc12)C(N)=O`: the results for the GI50 in experiment [1] and in experiment [2] were 7.37 µM and 28.3 µM, respectively.

For `C[C@H](NC(=O)c1[nH]nc2cc(NC(=O)c3cc4ccccc4s3)ccc12)C(N)=O`, the GI50 is > 30 µM in [1] and 28.2 µM in experiment [2].

As to `C[C@H](NC(=O)c1[nH]nc2cc(NC(=O)Nc3cccc(C(F)(F)F)c3)ccc12)C(N)=O`, the figures for the concentration for 50% growth inhibition (GI50) in experiment [1] and in [2] were 6.43 µM and 8.41 µM, respectively.

In the case of `C[C@H](NC(=O)c1[nH]nc2cc(NC(=O)c3ccc(Cl)c(C(F)(F)F)c3)ccc12)C(N)=O`, the GI50 in [1] is 9.13 µM; in experiment [2], 10.5 µM.

On to `Cc1cncn1-c1cc(C(=O)Nc2cccc(CNc3ccc4c(C(=O)N[C@@H](C)C(N)=O)[nH]nc4c3)c2)cc(C(F)(F)F)c1`, for which the inhibition came out at 19.5% in experiment [3]; 7.62% in experiment [4]; 0% in experiment [5]; 5.4% in [6]; 1.49% in experiment [7]; 3.1% in experiment [8]. Moreover, the inhibition in experiment [9] was determined as 2.89%; in experiment [10] it was 7.08%; in [11], 9.75%; in experiment [12], 0.7%; in experiment [13] it was 14.9%; in experiment [14], 4.99%. For the same molecule, the inhibition in experiment [16] was determined as 11.4%; in experiment [17], 0%; in [18] it was 8.36%; in experiment [19], 0%; in experiment [21] it was 0%; in experiment [22], 2.44%. Also, the inhibition in the experiment listed under Homo sapiens is 0%; in experiment [23], 0%; in [24], 0%; in experiment [25], 12.3%; in experiment [26], 4.2%; in [27] it was 0%. Moreover, the inhibition in [28] is 21.1%; in experiment [29], 0%; in experiment [30], 9.84%; in [31] it was 99.4%; in experiment [32], 9.04%; in experiment [33], 0%. The inhibition in experiment [34] came to 22.2%; in experiment [35] it was 8.88%; in [36] it was 1.16%; in experiment [37], 10.6%. The GI50 in [1] was 0.65 µM; in experiment [2], 15.9 µM. Moreover, the half-maximal inhibitory concentration (IC50) is 38.6 µM in experiment [15], 9.45 µM in experiment [20] and 7.82 µM in [38]. The RatioGI50 in experiment [39] came to 25.

As to `COc1ccc(-c2ccc(C(=O)Nc3ccc4c(C(=O)N[C@@H](C)C(N)=O)[nH]nc4c3)o2)cc1`, the GI50 stood at 7.86 µM in [1] and 19.2 µM in experiment [2].

Turning to `C[C@H](NC(=O)c1[nH]nc2cc(NC(=O)c3ccccc3)ccc12)C(N)=O`, the GI50 in [1] and in experiment [2] was > 30 µM in each case.

Consider `C[C@H](NC(=O)c1[nH]nc2cc(NC(=O)c3ccc4ncccc4c3)ccc12)C(N)=O`, for which the GI50 in [1] and in experiment [2] was > 30 µM in each case.

As for `C[C@H](NC(=O)c1[nH]nc2cc(NC(=O)c3cccc(C(F)(F)F)c3)ccc12)C(N)=O`, the GI50 in experiment [1] and in [2] was > 30 µM each time.

With `C[C@H](NC(=O)c1[nH]nc2cc(NCc3cccc(NC(=O)c4ccc(Cl)c(C(F)(F)F)c4)c3)ccc12)C(N)=O`, the GI50 in experiment [1] worked out at 4.54 µM; in [2], 7.19 µM.

Regarding `C[C@H](NC(=O)c1[nH]nc2cc(NC(=O)c3ccc(C(F)(F)F)c(N4CCOCC4)c3)ccc12)C(N)=O`, the results for the GI50 in experiment [1] and in experiment [2] were 7.37 µM and 28.3 µM, respectively.

With `Cc1cncn1-c1cc(C(=O)Nc2ccc3c(C(=O)N[C@@H](C)C(N)=O)[nH]nc3c2)cc(C(F)(F)F)c1`, the GI50 in experiment [1] turned out to be 12.9 µM; in [2], 7.19 µM.

For the molecule `C[C@H](NC(=O)c1[nH]nc2cc(NCc3cccc(NC(=O)c4cc(N5CCOCC5)cc(C(F)(F)F)c4)c3)ccc12)C(N)=O`, the GI50 in [1] was found to be 2.25 µM; in experiment [2], 25.6 µM.

In the case of `C[C@H](NC(=O)c1[nH]nc2cc(NC(=O)C(c3ccccc3)c3ccccc3)ccc12)C(N)=O`, the GI50 in experiment [1] and in experiment [2] was > 30 µM in each case.

As for `C[C@H](NC(=O)c1[nH]nc2cc(NC(=O)Nc3ccc(Cl)c(C(F)(F)F)c3)ccc12)C(N)=O`, the GI50 turned out to be 6.59 µM in [1] and 8.58 µM in experiment [2].

As for `C[C@H](NC(=O)c1[nH]nc2cc(NC(=O)Nc3ccc(N4CCOCC4)cc3)ccc12)C(N)=O`, the results for the GI50 in [1] and in experiment [2] were 9.29 µM and 12.3 µM, respectively.

Values taken from ChEMBL document CHEMBL3763132, “Discovery of highly selective CRAF inhibitors, 3-carboxamido-2H-indazole-6-arylamide: In silico FBLD design, synthesis and evaluation” (Bioorg Med Chem Lett, 2016).
